# According to patent publication US7192981B2, “3,4-dihydroxyhydrocinnamic acid derivative” (Bionutrigen Co., Ltd., priority 2005, dated 2007):
# Tests used:
# IRS-1 = assay: Phosphorylation of IRS-1 in adipocytes, immunoprecipitation and western blot; type: cell-based; conditions: SD rat adipocytes, DHH105 2 h, vs untreated control
# Protocol: Adipocytes treated with DHH105 for 2 h or insulin for 10 min were homogenized in 5 ml lysis buffer (20 mM Tris, pH 7.4, 1% SDS, 10% glycerol, 150 mM NaCl, 2 mM EDTA, 20 mM NaF, 1 mM NaVO4, 2 mM sodium pyrophosphate, protease inhibitor cocktail, and phosphatase inhibitor cocktail) with a teflon pestle (15 strokes). Homogenized adipocytes were sonicated for 3 min and solubilized for 30 min. The homogenate was centrifuged at 3,000 g for 10 min at 4° C. The protein concentration of the lysate was determined by the Bradford method. After dilution (1 μg/μl protein concentration), the lysates were incubated with anti-insulin receptor-β (IR-β) antibody (Upstate Biotech, Charlottesville, Va.) or anti-IRS-1 antibody (Upstate Biotech) overnight at 4° C. Protein A Sepharose beads (100 μl, Amersham Pharmacia Biotech) were added and the mixture was gently rocked for 2 h at 4° C. […] The membranes were washed and the immunoreactive proteins were detected with an enhanced chemoluminescence western blot detection kit (Amersham Pharmacia Biotech). To examine whether DHH105 treatment increases autophosphorylation of the insulin receptor and its tyrosine kinase activity, the phosphorylation of IR-β and IRS-1 were measured by immunoprecipitation and western blot in DHH105-treated adipocytes from SD rats. […]
# Akt/PKB = Akt/PKB phosphorylation in adipocytes, western blot; type: cell-based, rat; conditions: 500 μM, 4 h
# Protocol: Proteins were separated by 10% SDS-PAGE and transferred to a polyvinyl difluoride membrane (Amersham Pharmacia Biotech). After transfer, the membranes were blocked with 5% skim milk in Tris-buffered saline with Tween 20 (TBST; 0.05% Tween 20, 200 mM Tris-HCl, 500 mM NaCl, pH 7.5) for 1 h at room temperature. The membranes were incubated with anti-IR-β, anti-IRS-1, anti-phosphotyrosine, or anti-p85 PI3-kinase (Upstate Biotech); anti-Akt/PKB or anti-phospho-Akt/PKB (Cell Signalling Technology, Beverly, Mass.); anti-GLUT4 (Santa Cruz Biotechnology Inc., Santa Cruz, Calif.); or anti-β actin (Sigma) antibody in 5% bovine serum albumin in TBST for 1 h at room temperature or overnight at 4° C. After washing, the membranes were incubated with secondary antibodies labeled with horseradish peroxidase (HRP) in 5% skim milk in TBST for 1 h. The membranes were washed and the immunoreactive proteins were detected with an enhanced chemoluminescence western blot detection kit (Amersham Pharmacia Biotech).
# [1] = tested on: isolated rat epididymal adipocytes; assay: Glucose transport assay (2-DOG uptake); type: cell-based
# [2] = 500 μM, 4 h, 2-DOG 0.125 to 10.0 mM, Lineweaver-Burk
structure (smiles),measurement,setting,value
"O=C(CCc1ccc(O)c(O)c1)OCc1cccc2ccccc12 [DHH105, 3,4-dihydroxyhydrocinnamic acid naphthalene methyl ester]",phosphorylation of IRS-1,IRS-1,increased
same,amount of Akt/PKB protein,Akt/PKB,did not change
same,phosphorylated Akt/PKB,Akt/PKB; vs untreated control,significantly increased
same,effect on insulin-stimulated glucose transport,"[1]; 500 μM DHH105 3.5 h, then insulin 30 min",did not influence
same,"Km value, DHH105-treated vs control adipocytes","[1]; 500 μM, 4 h",no difference
same,Km,[1]; [2],1780 ± 380 µM
same,Vmax of glucose transport,[1]; [2],17.14±0.25 mmol/3 min
same,Vmax of glucose transport relative to untreated control adipocytes,"[1]; 500 μM, 4 h, Lineweaver-Burk",3 fold
same,incubation time from which 2-DOG uptake was increased,"[1]; rat adipocytes, 500 μM",1 h
same,increase of glucose transport vs untreated control at optimum concentration,"[1]; rat adipocytes, 4 h, DHH105 500 μM, glyburide 25 μM, metformin 250 μM, troglitazone 100 μM",4 fold
same,concentration at which 2-DOG uptake peaked,"[1]; rat adipocytes, 4 h treatment",500 µM
same,effect on glucose transport compared with other anti-diabetic drugs,"[1]; rat adipocytes, doses of 500 μM or more",significantly higher effect
